In patent US11730703B2, “Nanoparticles for treatment of posterior segment ocular diseases and conditions” (UNIVERSITY OF SOUTH FLORIDA, priority 2017, dated 2023):

Assays:
[1] = In vitro drug release (dialysis membrane tubing, PBS); format: physicochemical; settings: FIG. 5
Experimental: (iii) In vitro Drug Release: The rate of TA release from the NPs was measured by adapting a previously reported method. 40 Dialysis membrane tubing, MWCO 10 000 Da. (Spectrum Laboratories, Rancho Dominguez, Calif.) was soaked in deionized H2O overnight. 1 ml of the NP suspension was added to the dialysis membrane tubing after being briefly sonicated and was placed into 100 ml of PBS covered and stirring at 100 rpm at 37° C. 1 mL samples were removed at predetermined intervals over 10 days and replaced with fresh PBS. Samples were analyzed using UV spectroscopy at a wavelength of 240 nm (lmax) and compared to standard dilutions of TA in PBS (r^2=0.989) to determine the percentage of drug released over 10 days.
500 μL of 1 mg/mL DIG sol and 500 μL of DIG NPs in (cellulose) dialysis membrane tubing
Samples were taken in 750 μL increments and the respective amount of PBS was re-added

ARPE-19 cells = assay: Cytotoxicity, MTT assay; format: cell-based, human; settings: FIG. 6
Experimental: (iv) Cytotoxicity: The cytotoxicity of the TA Nanoparticles was assessed in ARPE-19 cells (cells of a human retinal pigment epithelial cell line) by the 3-(4,5-dimethylthiazol-2-yl)-2,5-diphenyltetrazolium bromide salt (MTT) assay. Briefly, cells were seeded in 24-well plates at a density of 5×10^4 cells/ml for 24 h to achieve confluency before treatment. […] Cell culture media were aspirated, and […] of MTT reagent solution (1 mg/ml) was added to each well. Cells were incubated at 37° C. and 5% CO2 for 4 h, after which the MTT reagent solution was aspirated and 1 mL of DMSO was added to each well. Plates were allowed to shake gently for 10 min before being read by Synergy H4 plate reader (Biotek Industries, Inc., Winooski, Vt.) at absorbance of 570 nm.
Media was removed and cells were washed with 500 μL of HBSS prior to treatment.
Cell Treatments • 3 control wells with 500 μL Experimental Media only • 3 wells with DIG sol at 0.5 μM and 1 μM concentrations: (0.5 μM: 9.76 μL DIG sol+490.24 μL Exp. Media) • (1 μM: 19.52 μL DIG sol+480.48 μL Exp. Media) • 3 wells with DIG NPs at 0.5 μM and 1 μM concentrations: (0.5 μM: 1.012 μL DIG NPs+[…] Exp. Media) • (1 μM: 2.024 μL DIG NPs+497.97 μL Exp. Media)
MTT Cell treatments: same as above w/o CoCl2 step
Prepare MTT reagent: 0.5 mg/mL (in basal media) and cover with aluminum foil
Remove media from each well and wash with HBSS […]

For C[C@H]1O[C@@H](O[C@H]2[C@@H](O)C[C@H](O[C@H]3[C@@H](O)C[C@H](O[C@H]4CC[C@@]5(C)[C@H](CC[C@@H]6[C@@H]5C[C@@H](O)[C@]5(C)[C@@H](C7=CC(=O)OC7)CC[C@]65O)C4)O[C@@H]3C)O[C@@H]2C)C[C@H](O)[C@@H]1O [digoxin], the “Drug release (in words)” value [1] was “sustained therapeutic release” and the “Cell toxicity (in words)” value (ARPE-19 cells) was “relatively low cell toxicity”.
